Measured values taken from patent US9901592B2 (priority 2008, dated 2018).
In brackets after ≈: the same amount, converted by molar mass. Read-outs that look alike come from different tables or passages of the source.

Tests used:
[1] = tested on: M. hominis; format: cell-based; conditions: M. hominis (13 isolates)
[2] = tested on: S. aureus; assay: mouse systemic infection model (PD50); format: in vivo
[3] = tested on: U. urealyticum; assay: MIC testing in 10B broth (colour change); format: cell-based; conditions: U. urealyticum (10 isolates)
[4] = tested on: S. pneumoniae; format: cell-based
[5] = tested on: M. pneumoniae; assay: microbe, parasite or virus in culture; format: cell-based; conditions: Mycoplasmoides pneumoniae
[6] = tested on: S. pneumoniae; assay: neutropenic mouse thigh infection; format: in vivo; conditions: PO
Description: Example. Neutropenic Mouse Thigh Infection. Mice were rendered neutropenic with IP injections of cyclophosamide at day −4 and day −1 of 150 mg/Kg and 100 mg/Kg, respectively. On day 0 mice were infected with approximately 5×10^5 CFU/ml of bacteria in a 0.1 ml volume into the right thigh. At 1.5 hours post infection mice received treatment via oral gavage. One group of infected mice were euthanized and thigh processed for bacterial titers to serve as T=0 controls. Twenty-four hours post treatment, the remaining mice were euthanized, thighs aseptically removed, weighed, homogenized, serially diluted and plated on bacterial growth media. CFUs per gram of thigh were calculated after overnight incubation of bacterial plates. The amount of test article required to achieve 1, 2, and 3 loge reductions from 24 hour control thighs were calculated. Additional studies were performed that fractionated the single treatment dose (Q24) into two (Q12), three (Q8) and four (Q6) equivalent doses to determine the pharmacodynamic nature of this compound. Further analysis includes static dose, EC50, 1 log kill and maximal effect (Emax).

[7] = tested on: S. pneumoniae; assay: mouse subcutaneous abscess model; format: in vivo; conditions: for average log10 CFU/gram of abscess: S. pneumoniae 1629, 10 mg/Kg PO
Description: Example. Efficacy was evaluated in several infection models. […] PD50s were determined 24 hr post infection. CEM-101 was further evaluated in a subcutaneous abscess mouse model against S. pneumoniae. CD-1 female mice were infected via SC injection of bacteria mixed with cyclodextran beads. Two hr post infection, mice received a single oral dose of CEM 101 or control agents. At 48 hr post dose, mice were euthanized, abscesses aseptically removed and bacteria enumerated. CFU per abscess was determined and compared to the untreated control. […] 24 hr post treatment, the thighs were processed and CFU/gram of thigh determined.
Example. Mouse Subcutaneous Abscess. Bacteria were prepared from an overnight plate culture by re-suspending in saline and adjusting the suspension to a 0.1 OD at 625 nm of a 1:10 dilution. The adjusted bacterial suspension was mixed 1:2 with cyclodextran beads prepared as per package instructions. The right flanks of the mice were shaven and injected subcutaneously with 0.2 ml of the bacterial inoculum. Two hours post infection mice were treated via oral gavage with either test article or control drug. 48 hours post infection, mice were euthanized, abscesses aseptically removed, homogenized, serially diluted and plated on bacterial growth agar. After overnight incubation, colonies were counted and CFUs/gram of abscess were determined.
Example. The ability of CEM101 to reduce the microbial load in abscess infection model was also assessed against S. pneumoniae isolates.

[8] = tested on: streptococci; assay: organism not typed; format: cell-based
[9] = tested on: S. pyogenes; format: cell-based
[10] = tested on: M. catarrhalis; assay: microbe, parasite or virus in culture; format: cell-based

CC[C@H]1OC(=O)[C@@](C)(F)C(=O)[C@H](C)[C@@H](OC2OC(C)CC(N(C)C)C2O)[C@@](C)(OC)C[C@@H](C)C(=O)[C@H](C)[C@H]2N(CCCCn3cc(-c4cccc(N)c4)nn3)C(=O)O[C@]12C (some centres unmarked) [CEM-101, 11-N-4-(3-aminophenyl)-[1,2,3]triazol-1-yl]-butyl}-5-desosaminyl-3-oxo-2-fluoro-erythronolide A,-11,12-cyclic carbamate]
MIC Range [1]: 2 to 8 ng/mL | MIC50 ([1]; Metamycoplasma hominis, read-out: MIC50): 4 ng/mL (≈ 4.73 nM) | MIC90 ([1]; Metamycoplasma hominis, read-out: MIC90): 8 ng/mL (≈ 9.47 nM) | PD50 ([2]; MRSA): 7.5 mg/kg | PD50 ([2]; MRSA 300 (CA)): 9.5 mg/kg | PD50 ([2]; S. aureus, single oral dose 1 hr post infection): 16.3 mg/kg | MIC Range [3]: 4 to 63 ng/mL | MIC50 ([3]; Ureaplasma urealyticum): 8 ng/mL (≈ 9.47 nM) | MIC90 ([3]; Ureaplasma urealyticum): 31 ng/mL (≈ 36.7 nM) | single step mutation frequency ([4]; strain 24 Macrolide-R [erm(B)], 2 × MIC): 1.8 × 10^−7 | single step mutation frequency ([4]; strain 24 Macrolide-R [erm(B)], 4 × MIC): <5.0 × 10^−9 | single step mutation frequency ([4]; strain 24 Macrolide-R [erm(B)], 8 × MIC): <5.0 × 10^−9 | single step mutation frequency ([4]; strain 1076 Macrolide-R [erm(B)&mef(A)], 2 × MIC): <2.5 × 10^−8 | single step mutation frequency ([4]; strain 1076 Macrolide-R [erm(B)&mef(A)], 4 × MIC): 7.5 × 10^−9 | single step mutation frequency ([4]; strain 1076 Macrolide-R [erm(B)&mef(A)], 8 × MIC): 2.0 × 10^−9 | single step mutation frequency ([4]; strain 1077 Macrolide-S, 2 × MIC): <9.1 × 10^−9 | single step mutation frequency ([4]; strain 1077 Macrolide-S, 4 × MIC): <9.1 × 10^−9 | single step mutation frequency ([4]; strain 1077 Macrolide-S, 8 × MIC): <9.1 × 10^−9 | single step mutation frequency ([4]; strain 1635 Macrolide-R [erm(A)], 2 × MIC): 1.6 × 10^−8 | single step mutation frequency ([4]; strain 1635 Macrolide-R [erm(A)], 4 × MIC): <2.0 × 10^−10 | single step mutation frequency ([4]; strain 1635 Macrolide-R [erm(A)], 8 × MIC): <2.0 × 10^−10 | single step mutation frequency ([4]; strain 2686 Macrolide-R [L4 mutation], 2 × MIC): <2.5 × 10^−9 | single step mutation frequency ([4]; strain 2686 Macrolide-R [L4 mutation], 4 × MIC): <2.5 × 10^−9 | single step mutation frequency ([4]; strain 2686 Macrolide-R [L4 mutation], 8 × MIC): <2.5 × 10^−9 | single step mutation frequency ([4]; strain 3009 Macrolide-R [23S rRNA mutation], 2 × MIC): <5.9 × 10^−9 | single step mutation frequency ([4]; strain 3009 Macrolide-R [23S rRNA mutation], 4 × MIC): <5.9 × 10^−9 | single step mutation frequency ([4]; strain 3009 Macrolide-R [23S rRNA mutation], 8 × MIC): <5.9 × 10^−9 | single step mutation frequency ([4]; strain 3665 Macrolide-R [mef(A)], 2 × MIC): 6.8 × 10^−7 | single step mutation frequency ([4]; strain 3665 Macrolide-R [mef(A)], 4 × MIC): 1.4 × 10^−7 | single step mutation frequency ([4]; strain 3665 Macrolide-R [mef(A)], 8 × MIC): <4.5 × 10^−10 | single step mutation frequency ([4]; strain 7127 Macrolide-S [S20N in L4, A105V in L22], 2 × MIC): <2.0 × 10^−10 | single step mutation frequency ([4]; strain 7127 Macrolide-S [S20N in L4, A105V in L22], 4 × MIC): <2.0 × 10^−10 | single step mutation frequency ([4]; strain 7127 Macrolide-S [S20N in L4, A105V in L22], 8 × MIC): <2.0 × 10^−10 | MIC50 [5]: 0.032 ng/mL (≈ 0.0379 nM) | Max. change in log10CFUs from 24 hr. controls ([6]; S. pneumoniae 1629): −5.81 log10CFUs | Dose for 2 log10 Reduction from 24 hour controls ([6]; S. pneumoniae 1629, QD): 7.0 mg/Kg | Max. change in log10CFUs from 24 hr. controls ([6]; S. pneumoniae 6303): −6.17 log10CFUs | Emax ([6]; S. pneumoniae 6303, Q6): 5.83 log10CFU/thigh | EC50 ([6]; S. pneumoniae 6303, Q8): 9.0 mg/kg | EC50 ([6]; S. pneumoniae 6303, Q12): 14.5 mg/kg | Emax ([6]; S. pneumoniae 6303, Q12): 4.95 log10CFU/thigh | 1 log kill ([6]; S. pneumoniae 6303, Q24): 10.8 mg/Kg | EC50 ([6]; S. pneumoniae 6303, Q24): 5.7 mg/kg | average log10 CFU/gram of abscess ([7]; 24 hours): about 3 log10 CFU/gram | average log10 CFU/gram of abscess ([7]; 48 hours): about 3 log10 CFU/gram | log decrease of CFU from untreated mice ([7]; abscess, 10 mg/Kg QD dose): 4.2 log10 | MIC [8]: 60 ng/mL (≈ 71 nM) | single step mutation frequency ([9]; strain 237 Macrolide-R [L4 mutation], 2 × MIC): <1.3 × 10^−10 | single step mutation frequency ([9]; strain 237 Macrolide-R [L4 mutation], 4 × MIC): <1.3 × 10^−10 | single step mutation frequency ([9]; strain 237 Macrolide-R [L4 mutation], 8 × MIC): <1.3 × 10^−10 | single step mutation frequency ([9]; strain 2011 Macrolide-R [mef(A)], 2 × MIC): 3.9 × 10^−8 | single step mutation frequency ([9]; strain 2011 Macrolide-R [mef(A)], 4 × MIC): <1.1 × 10^−10 | single step mutation frequency ([9]; strain 2011 Macrolide-R [mef(A)], 8 × MIC): <1.1 × 10^−10 | single step mutation frequency ([9]; strain 2094 Macrolide-R [erm(A)], 2 × MIC): 5.3 × 10^−8 | single step mutation frequency ([9]; strain 2094 Macrolide-R [erm(A)], 4 × MIC): 2.1 × 10^−9 | single step mutation frequency ([9]; strain 2094 Macrolide-R [erm(A)], 8 × MIC): <5.3 × 10^−10 | single step mutation frequency ([9]; strain 2132 Macrolide-S, 2 × MIC): <1.0 × 10^−10 | single step mutation frequency ([9]; strain 2132 Macrolide-S, 4 × MIC): <1.0 × 10^−10 | single step mutation frequency ([9]; strain 2132 Macrolide-S, 8 × MIC): <1.0 × 10^−10 | single step mutation frequency ([9]; strain 2368 Macrolide-R [erm(B)], 2 × MIC): <5.9 × 10^−11 | single step mutation frequency ([9]; strain 2368 Macrolide-R [erm(B)], 4 × MIC): <5.9 × 10^−11 | single step mutation frequency ([9]; strain 2368 Macrolide-R [erm(B)], 8 × MIC): <5.9 × 10^−11 | Occurrences at MIC (μg/ml) 1 [10]: 0 | Occurrences at MIC (μg/ml) 2 [10]: 0 | Occurrences at MIC (μg/ml) 4 [10]: 0 | Occurrences at MIC (μg/ml) 8 [10]: 0 | Occurrences at MIC (μg/ml) […] [10]: 0 | Occurrences at MIC (μg/ml) ≧16 [10]: 0 | MIC50 ([10]; Moraxella catarrhalis): 120 ng/mL (≈ 142 nM) | MIC90 ([10]; Moraxella catarrhalis): 120 ng/mL (≈ 142 nM) | MIC ([10]; Moraxella catarrhalis, read-out: Occurrences at MIC (μg/ml) 0.03): 1 µg/mL (≈ 1180 nM) | MIC ([10]; Moraxella catarrhalis, read-out: Occurrences at MIC (μg/ml) 0.06): 5 µg/mL (≈ 5920 nM) | MIC ([10]; Moraxella catarrhalis, read-out: Occurrences at MIC (μg/ml) 0.5): 1 µg/mL (≈ 1180 nM) | MIC ([10]; Moraxella catarrhalis, read-out: Occurrences at MIC (μg/ml) ≦0.008): 1 µg/mL (≈ 1180 nM)
